Measured values taken from patent US12084436B2, “Heterocyclic compound” (Takeda Pharmaceutical Company Limited, priority 2019, dated 2024).

Target: T1, HDAC6 enzyme (Homo sapiens, UniProt Q9UBN7)
T1 construct: prepared by transducing full length HDAC6 gene into Sf-9 insect cells; GST; purchased SignalChem; host or cells: Sf-9 insect cells
T1 sequence (Q9UBN7 1-1215): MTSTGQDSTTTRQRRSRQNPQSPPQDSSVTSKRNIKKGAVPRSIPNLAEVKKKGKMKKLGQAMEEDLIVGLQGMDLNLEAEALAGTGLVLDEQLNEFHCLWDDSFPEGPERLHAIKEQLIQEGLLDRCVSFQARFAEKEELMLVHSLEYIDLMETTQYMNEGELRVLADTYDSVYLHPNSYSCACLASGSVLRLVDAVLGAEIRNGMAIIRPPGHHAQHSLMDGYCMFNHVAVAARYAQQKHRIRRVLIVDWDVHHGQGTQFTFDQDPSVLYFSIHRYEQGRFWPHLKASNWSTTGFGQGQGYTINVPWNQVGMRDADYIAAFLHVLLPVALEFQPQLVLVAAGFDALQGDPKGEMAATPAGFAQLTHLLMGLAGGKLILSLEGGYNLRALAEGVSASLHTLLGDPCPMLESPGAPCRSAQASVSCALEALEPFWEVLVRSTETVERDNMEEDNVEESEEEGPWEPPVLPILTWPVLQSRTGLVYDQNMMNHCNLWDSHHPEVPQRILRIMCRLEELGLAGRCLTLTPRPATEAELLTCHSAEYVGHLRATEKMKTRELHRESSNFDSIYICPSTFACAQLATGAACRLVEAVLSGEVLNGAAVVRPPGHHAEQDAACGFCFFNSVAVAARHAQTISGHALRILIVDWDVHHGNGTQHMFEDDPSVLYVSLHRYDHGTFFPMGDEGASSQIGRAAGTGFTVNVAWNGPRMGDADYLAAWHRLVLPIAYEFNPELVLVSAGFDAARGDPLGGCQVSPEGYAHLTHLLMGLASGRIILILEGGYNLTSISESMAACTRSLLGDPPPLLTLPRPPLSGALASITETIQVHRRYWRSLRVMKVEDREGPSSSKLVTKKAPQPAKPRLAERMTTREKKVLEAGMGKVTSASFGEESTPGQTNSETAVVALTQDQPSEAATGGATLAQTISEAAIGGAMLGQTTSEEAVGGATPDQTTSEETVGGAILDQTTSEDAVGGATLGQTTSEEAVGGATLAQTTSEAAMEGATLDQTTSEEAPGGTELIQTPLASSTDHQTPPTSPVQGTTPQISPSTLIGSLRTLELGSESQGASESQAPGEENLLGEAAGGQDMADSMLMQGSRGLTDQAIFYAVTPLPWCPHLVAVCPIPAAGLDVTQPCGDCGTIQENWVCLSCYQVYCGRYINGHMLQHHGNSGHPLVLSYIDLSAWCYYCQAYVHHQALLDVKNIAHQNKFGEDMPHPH
Assay: HDAC6 enzyme inhibitory assay (HDAC-Glo I/II Assay kit, luminescence)
Type: biochemical
Settings: 10 μM test compound, wells without enzyme = 100% inhibition; for inhibition at 10 µM: read-out: HDAC6 inhibitory rate (%) (10 μM)
Outline: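 Full-length human HDAC6, GST-purified from Sf-9 cells, was preincubated with compound for 60 min at room temperature in Tris-HCl pH 7.5 buffer with glutathione and Tween-20. Substrate-developer was then added, and luminescence was read after 20 min at room temperature. Inhibition was expressed relative to no-enzyme wells, taken as 100% inhibition.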

Compound	inhibition at 10 µM	HDAC6 inhibitory rate (%) (10 μM)
CN1C(=O)c2cc(-c3nnc(C(F)F)o3)ccc2OC1(C)c1ccc(Cl)cc1 (stereo not shown) [Example 26b, 2-(4-chlorophenyl)-6-[5-(difluoromethyl)-1,3,4-oxadiazol-2-yl]-2,3-dimethyl-2,3-dihydro-4H-1,3-benzoxazin-4-one]	100%	
CN(Cc1cncc(Cl)c1)N1Cc2ncc(-c3nnc(C(F)F)o3)cc2C1=O [Example 70c, 6-{[(5-chloropyridin-3-yl)methyl](methyl)amino}-3-[5-(difluoromethyl)-1,3,4-oxadiazol-2-yl]-6,7-dihydro-5H-pyrrolo[3,4-b]pyridin-5-one]	100%	
CCN1C(=O)c2cc(-c3nnc(C(F)F)o3)ccc2CN1c1ccc(F)cc1 [Example 46b, 7-[5-(difluoromethyl)-1,3,4-oxadiazol-2-yl]-2-ethyl-3-(4-fluorophenyl)-3,4-dihydrophthalazin-1(2H)-one]	100%	
O=C1c2cc(-c3nnc(C(F)F)o3)ccc2CN1NCc1cnn(C2CC2)c1 [Example 9c, 2-{[(1-cyclopropyl-1H-pyrazol-4-yl)methyl]amino}-6-[5-(difluoromethyl)-1,3,4-oxadiazol-2-yl]-2,3-dihydro-1H-isoindol-1-one]	97%	
CN1C(=O)c2cc(-c3nnc(C(F)F)o3)ccc2CC1(C)c1ccc(F)cc1 (single isomer, unassigned; isomer 2) [Example 24b, 7-[5-(difluoromethyl)-1,3,4-oxadiazol-2-yl]-3-(4-fluorophenyl)-2,3-dimethyl-3,4-dihydroisoquinolin-1(2H)-one (optical isomer 2)]		99%
CN(CC1CCOCC1)N1Cc2ccc(-c3nnc(C(F)F)o3)cc2C1=O [Example 41c, 6-[5-(difluoromethyl)-1,3,4-oxadiazol-2-yl]-2-{methyl[(oxan-4-yl)methyl]amino}-2,3-dihydro-1H-isoindol-1-one]	99%	

Next, values leading:

inhibition at 10 µM	HDAC6 inhibitory rate (%) (10 μM)	Compound
99%		O=C(OCc1ccccn1)N(Cc1ccc(F)cc1)N1Cc2ccc(-c3nnc(C(F)F)o3)cc2C1=O [Example 25c, (pyridin-2-yl)methyl {6-[5-(difluoromethyl)-1,3,4-oxadiazol-2-yl]-1-oxo-1,3-dihydro-2H-isoindol-2-yl}[(4-fluorophenyl)methyl]carbamate]
101%		O=C1NN(c2ccc(F)cc2)Cc2ncc(-c3nnc(C(F)F)o3)cc21 [Example 3b, 3-[5-(difluoromethyl)-1,3,4-oxadiazol-2-yl]-7-(4-fluorophenyl)-7,8-dihydropyrido[2,3-d]pyridazin-5(6H)-one]
104%		FC(F)c1nnc(-c2cccc(-n3nccc3C3CC3)c2)o1 [Example 2a, 2-[3-(5-cyclopropyl-1H-pyrazol-1-yl)phenyl]-5-(difluoromethyl)-1,3,4 oxadiazole]
	56%	CN1C(=O)c2cc(-c3nnc(C(F)F)o3)cnc2CC1(C)c1ccc(F)cc1 (single isomer, unassigned; isomer 1) [Example 27b, 3-[5-(difluoromethyl)-1,3,4-oxadiazol-2-yl]-7-(4-fluorophenyl)-6,7-dimethyl-7,8-dihydro-1,6-naphthyridin-5(6H)-one (optical isomer 1)]
99%		Fc1ccc(Cn2ccnc2-c2cc(F)cc(-c3nnc(C(F)F)o3)c2)cc1 [Example 46a, 2-(difluoromethyl)-5-(3-fluoro-5-{1-[(4-fluorophenyl)methyl]-1H-imidazol-2-yl}phenyl)-1,3,4-oxadiazole]
97%		Fc1cc(-c2nnc(C(F)F)o2)cc(-c2nccn2Cc2ccccc2Cl)c1 [Example 20a, 2-(3-{1-[(2-chlorophenyl)methyl]-1H-imidazol-2-yl]-5-fluorophenyl)-5-(difluoromethyl)-1,3,4-oxadiazole]
98%		FC(F)c1nnc(-c2ccnc(-c3ncc(Cl)n3Cc3ccccn3)c2)o1 [Example 38a, 2-[5-chloro-1-[(pyridin-2-yl)methyl]-1H-imidazol-2-yl}-4-[5-(difluoromethyl)-1,3,4-oxadiazol-2-yl]pyridine]
